The source of these data is patent US8222244B2, “Staurosporine derivatives as inhibitors of FLT3 receptor tyrosine kinase activity” (Novartis AG, priority 2001, dated 2012).

This experiment addresses T1, human Flt-3 (Homo sapiens, UniProt P36888).
T1 construct: expresses the amino acid region amino acids 563-993 of the intra-cytoplasmic kinase domains of human Flt-3; made in house; host or cells: Sf9 insect cells (baculovirus, pFbacG01 donor vector)
T1 sequence (P36888 563-993): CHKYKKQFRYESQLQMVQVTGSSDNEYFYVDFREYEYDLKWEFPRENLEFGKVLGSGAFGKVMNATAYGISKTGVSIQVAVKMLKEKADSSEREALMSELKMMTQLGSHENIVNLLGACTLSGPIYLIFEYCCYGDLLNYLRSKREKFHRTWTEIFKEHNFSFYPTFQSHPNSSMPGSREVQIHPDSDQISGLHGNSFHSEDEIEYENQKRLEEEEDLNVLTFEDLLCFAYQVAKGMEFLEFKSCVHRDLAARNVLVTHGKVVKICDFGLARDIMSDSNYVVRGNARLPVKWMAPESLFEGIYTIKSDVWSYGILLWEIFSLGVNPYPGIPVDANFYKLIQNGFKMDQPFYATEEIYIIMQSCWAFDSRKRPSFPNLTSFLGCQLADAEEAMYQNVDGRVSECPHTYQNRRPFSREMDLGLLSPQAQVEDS
Description: Tyrosine protein kinase assay with purified GST-Flt-3 (33P incorporation). The following applies: at a 1.0 micromolar concentration. Format: biochemical. The protocol:
ATP into appropriate substrates.
The coding sequences for the cytoplasmic domain of Flt-3 was amplified by PCR from human c-DNA libraries (Clontech). The amplified DNA fragments and the pFbacG01 vector were made compatible for ligation by digestion with BamH1 and Hind III. […] The production of the viruses, the expression of proteins in Sf9 cells and the purification of the GST-fused proteins were performed as following:
(Generation of Bac- to Bac GST-fusion vectors); pFbacG01, pFbacGST2T and pFbacGSTx3 Bac-to-Bac™ donor vectors were generated from pAcG1, pAcG2T and pAcG3X respectively, which facilitate the expression of GST-fusion proteins with the possibility of cleavage with thrombin (pFbacGT2) or factor Xa (pFbacGSTx3) while pFbacG01 expresses no proteolytic cleavage site. These were generated in house by isolation of the DNA fragment containing the gene for GST with the C-terminal protease and restriction sites by restriction enzyme digestion of the relevant PharMingen baculovirus donor vector with EcoRV and EcoRI. This EcoRV/EcoRI fragment was ligated into the pFastBac1 vector which had been restriction digested with BamHI, blunt-ended by Klenow reaction and subsequently digested with EcoRI to generate a blunt-ended/EcoRI vector. (Production of virus); Transfer vectors containing the kinase domains were transfected into the DH10Bac cell line (GIBCO) and plated on selective agar plates. Colonies without insertion of the fusion sequence into the viral genome (carried by the bacteria) are blue. Single white colonies were picked and viral DNA (bacmid) isolated from the bacteria by standard plasmid purification procedures. Sf9 cells or Sf21 cells were then transfected in 25 cm^2 flasks with the viral DNA using Cellfectin reagent. (Determination of small scale protein expression in Sf9 cells); Virus containing media was collected from the transfected cell culture and used for infection to increase its titer. Virus containing media obtained after two rounds of infection was used for large-scale protein expression. For large-scale protein expression 100 cm^2 round tissue culture plates were seeded with 5×10^7 cells/plate and infected with 1 mL of virus-containing media (approx. 5 MOIs). After 3 days the cells were scraped off the plate and centrifuged at 500 rpm for 5 min. Cell pellets from 10-20, 100 cm^2 plates, were resuspended in 50 mL of ice-cold lysis buffer (25 mMTris-HCl, pH7.5, 2 mMEDTA, 1% NP-40, 1 mM DTT, 1 mMP MSF). The cells were stirred on ice for 15 min and then centrifuged at 5000 rpms for 20 min.
ATP 0.1 μCi). […] ATP into appropriate substrates. […] Subsequently, 40 μL of the reaction mixture were transferred onto Immobilon-PVDF membrane (Millipore, Bedford, Mass., USA) previously soaked for 5 min with methanol, rinsed with water, then soaked for 5 min with 0.5% H3PO4 and mounted on vacuum manifold with disconnected vacuum source. After spotting all samples, vacuum was connected and each well rinsed with 200 μL 0.5% H3PO4. Membranes were removed and washed 4× on a shaker with 1.0% H3PO4, once with ethanol. Membranes were counted after drying at ambient temperature, mounting in Packard TopCount 96-well frame, and addition of 10 μL/well of Microscint™ (Packard). […] One unit of protein kinase activity is defined as 1 nmole of ^33P ATP transferred from [γ^33P] ATP to the substrate protein per minute per mg of protein at 37° C.

As for `COC1C(N(C)C(=O)c2ccc(C(=O)[O-])cc2)CC2OC1(C)n1c3ccccc3c3c4c(c5c6ccccc6n2c5c31)C(=O)NC4.[Na+]` (stereo not drawn) [120751-44-2, [9S-(9a,10b,11b,13a)]-4-[[(2,3,10,11,12,13-Hexahydro-10-methoxy-9-methyl-1-oxo-9,13-epoxy-1H,9H-diindolo[1,2,3-gh:3′,2′,1′-lm]pyrrolo[3,4-j][1,7]benzodiazonin-11-yl)methylamino]carbonyl]-benzoic acid, monosodium salt], the “Flt3 Inhibition (percent inhibition of Flt3 kinase activity)” value is recorded as 90%.
Then `COC1C(N(C)C(=O)CCN)CC2OC1(C)n1c3ccccc3c3c4c(c5c6ccccc6n2c5c31)C(=O)NC4.Cl` (stereo not drawn) [124078-41-7, [9S-(9a,10b,11b,13a)]-3-Amino-N-(2,3,10,11,12,13-hexahydro-10-methoxy-9-methyl-1-oxo-9,13-epoxy-1H,9H-diindolo[1,2,3-gh:3′,2′,1′-lm]pyrrolo[3,4-j][1,7]benzodiazonin-11-yl)-N-methyl-propanamide, monohydrochloride], with 99%; and `CO[C@@H]1[C@H](N(C)C(=O)CNC(=O)OC(C)(C)C)C[C@H]2O[C@]1(C)n1c3ccccc3c3c4c(c5c6ccccc6n2c5c31)C(=O)NC4` [124078-43-9, [9S-(9a,10b,11b,13a)]-[2-[(2,3,10,11,12,13-Hexahydro-10-methoxy-9-methyl-1-oxo-9,13-epoxy-1H,9H-diindolo[1,2,3-gh:3′,2′,1′-lm]pyrrolo[3,4-j][1,7]benzodiazonin-11-yl)methylamino]-2-oxoethyl]-carbamic acid, 1,1-dimethylethyl ester], with 65%.
The same measure for `COC1C(N(C)C(=O)CN)CC2OC1(C)n1c3ccccc3c3c4c(c5c6ccccc6n2c5c31)C(=O)NC4.Cl` (stereo not drawn) [124151-42-4, [9S-(9a,10b,11b,13a)]-2-Amino-N-(2,3,10,11,12,13-hexahydro-10-methoxy-9-methyl-1-oxo-9,13-epoxy-1H,9H-diindolo[1,2,3-gh:3′,2′,1′-lm]pyrrolo[3,4-j][1,7]benzodiazonin-11-yl)-N-methyl-acetamide, monohydrochloride]: 97%; for `COC1C(N(C)C(=O)CNC(=O)OCc2ccccc2)CC2OC1(C)n1c3ccccc3c3c4c(c5c6ccccc6n2c5c31)C(=O)NC4` (centres unmarked) [125035-78-1, (9a,10b,11b,13a)-[2-[(2,3,10,11,12,13-Hexahydro-10-methoxy-9-methyl-1-oxo-9,13-epoxy-1H,9H-diindolo[1,2,3-gh:3′,2′,1′-lm]pyrrolo[3,4-j][1,7]benzodiazonin-11-yl)methylamino]-2-oxoethyl]-carbamic acid, phenylmethyl ester]: 52%.
Consider `CO[C@@H]1/C(=N/O)C[C@H]2O[C@]1(C)n1c3ccccc3c3c4c(c5c6ccccc6n2c5c31)C(=O)NC4` [126221-76-9, (9S,10R,11Z,13R)-2,3,9,10,12,13-Hexahydro-10-methoxy-9-methyl-9,13-epoxy-1H,11H-diindolo[1,2,3-gh:3′,2′,1′-lm]pyrrolo[3,4-j][1,7]benzodiazonine-1,11-dione, 11-oxime], for which the “Flt3 Inhibition (percent inhibition of Flt3 kinase activity)” value turned out to be 83%.
Then `CO[C@@H]1[C@H](N)C[C@H]2O[C@]1(C)n1c3ccccc3c3c4c(c5c6ccccc6n2c5c31)C(=O)NC4` [126221-77-0, (9S,10R,11R,13R)-11-Amino-2,3,10,11,12,13-hexahydro-10-methoxy-9-methyl-9,13-epoxy-1H,9H-diindolo[1,2,3-gh:3′,2′,1′-lm]pyrrolo[3,4-j][1,7]benzodiazonin-1-one], with 96%.
Then `CO[C@@H]1[C@H](N(C)C(=O)c2ccccc2)C[C@H]2O[C@]1(C)n1c3ccccc3c3c4c(c5c6ccccc6n2c5c31)C(=O)NC4=O` [154589-96-5, [9S-(9a,10b,11b,13a)]-N-(2,3,10,11,12,13-Hexahydro-10-methoxy-9-methyl-1,3-dioxo-9,13-epoxy-1H,9H-diindolo[1,2,3-gh:3′,2′,1′-lm]pyrrolo[3,4-j][1,7]benzodiazonin-11-yl)-N-methyl-benzamide], with 63%; and `COC1C(N(C)C(=O)c2cccnc2)CC2OC1(C)n1c3ccccc3c3c4c(c5c6ccccc6n2c5c31)C(=O)NC4` (stereo not drawn) [155848-16-1, [9S-(9a,10b,11b,13a)]-N-(2,3,10,11,12,13-Hexahydro-10-methoxy-9-methyl-1-oxo-9,13-epoxy-1H,9H-diindolo[1,2,3-gh:3′,2′,1′-lm]pyrrolo[3,4-g][1,7]benzodiazonin-11-yl)-N-methyl-3-pyridinecarboxamide], with 89%; and `COC1C(N(C)C(=O)c2cnccn2)CC2OC1(C)n1c3ccccc3c3c4c(c5c6ccccc6n2c5c31)C(=O)NC4` (stereo not drawn) [155848-17-2, [9S-(9a,10b,11b,13a)]-N-(2,3,10,11,12,13-Hexahydro-10-methoxy-9-methyl-1-oxo-9,13-epoxy-1H,9H-diindolo[1,2,3-gh:3′,2′,1′-lm]pyrrolo[3,4-g][1,7]benzodiazonin-11-yl)-N-methyl-pyrazinecarboxamide], with 85%.
The same measure for `COC1C(N(C)C(=O)C(C)OC2CCOCC2)CC2OC1(C)n1c3ccccc3c3c4c(c5c6ccccc6n2c5c31)C(=O)NC4` (stereo not drawn) [160251-50-3, [9S-[9a,10b,11b(S*),13a]]-N-(2,3,10,11,12,13-Hexahydro-10-methoxy-9-methyl-1-oxo-9,13-epoxy-1H,9H-diindolo[1,2,3-gh:3′,2′,1′-lm]pyrrolo[3,4-j][1,7]benzodiazonin-11-yl)-N-methyl-2-[(tetrahydro-2H-pyran-4-yl)oxy]-propanamide]: 89%; for `CO[C@@H]1[C@H](N(C)C(=O)C(C)(C)OC2CCOCC2)C[C@H]2O[C@]1(C)n1c3ccccc3c3c4c(c5c6ccccc6n2c5c31)C(=O)NC4` [160251-55-8, [9S-(9a,10b,11b,13a)]-N-(2,3,10,11,12,13-Hexahydro-10-methoxy-9-methyl-1-oxo-9,13-epoxy-1H,9H-diindolo[1,2,3-gh:3′,2′,1′-lm]pyrrolo[3,4-j][1,7]benzodiazonin-11-yl)-N,2-dimethyl-2-[(tetrahydro-2H-pyran-4-yl)oxy]-propanamide]: 85%.
In the case of `COC1C(N(C)C(=O)C(C)OC2CCOCC2)CC2OC1(C)n1c3ccccc3c3c4c(c5c6ccccc6n2c5c31)C(=O)NC4` (stereo not drawn) [160335-31-9, [9S-[9a,10b,11b(R*),13a]]-N-(2,3,10,11,12,13-Hexahydro-10-methoxy-9-methyl-1-oxo-9,13-epoxy-1H,9H-diindolo[1,2,3-gh:3′,2′,1′-lm]pyrrolo[3,4-j][1,7]benzodiazonin-11-yl)-N-methyl-2-[(tetrahydro-2H-pyran-4-yl)oxy]-propanamide], the “Flt3 Inhibition (percent inhibition of Flt3 kinase activity)” value stood at 90%.
Consider `COC1C(N(C)C(=O)c2ccc(O)cc2)CC2OC1(C)n1c3ccccc3c3c4c(c5c6ccccc6n2c5c31)C(=O)NC4` [165815-73-6, N-[(9S,10R,11R,13R)-2,3,10,11,12,13-Hexahydro-10-methoxy-9-methyl-1-oxo-9,13-epoxy-1H,9H-diindolo[1,2,3-gh:3′,2′,1′-lm]pyrrolo[3,4-j][1,7]benzodiazonin-11-yl]-4-hydroxy-N-methyl-benzamide], for which the “Flt3 Inhibition (percent inhibition of Flt3 kinase activity)” value is reported as 91%.
